Source: patent US11400059B2, “Treatment of pain and/or pain related symptoms associated with dysmenorrhea” (ALYRA BIOTECH PTY LTD, priority 2017, dated 2022)

Key:
Format in all cases: cell-based
Settings in all cases: antagonist mode, Ami 1 μM
Human Dectin-1a = biological target: T1, Human Dectin-1a (Homo sapiens, UniProt Q9BXN2); experiment: Human CLR antagonist screening, NF-κB SEAP reporter in HEK293 cells
T1 construct: expressed in transfected cells; host or cells: HEK293
T1 sequence (Q9BXN2 1-247): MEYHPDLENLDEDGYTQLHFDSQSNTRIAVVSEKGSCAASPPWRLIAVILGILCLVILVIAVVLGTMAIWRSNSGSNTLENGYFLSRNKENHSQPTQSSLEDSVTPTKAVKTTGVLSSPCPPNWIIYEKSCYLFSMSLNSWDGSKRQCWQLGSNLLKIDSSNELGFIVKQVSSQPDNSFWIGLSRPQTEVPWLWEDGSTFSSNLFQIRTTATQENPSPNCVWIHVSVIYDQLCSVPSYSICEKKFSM
Protocol: Toll-Like Receptor (TLR), NOD-Like Receptor (NLR) and C-Type Lectin Receptor (CLR) stimulation were tested by assessing NF-κB activation in HEK293 cells expressing a given TLR, NLR or CLR. The activity of the test articles was tested at one concentration and compared to control ligands. These steps were performed in triplicate. hDectin-1a and hDectin-1b: WGP Soluble (0-glucan from S. cerevisiae) at 10 ng/mL Antagonist: 5 ng/mL. Curdlan at 100 μg/mL. Antagonist: 100 μg/mL. Zymosan Depleted (hot alkali treated S. cerevisiae) at 5 μg/mL Antagonist: 3 μg/mL. In a 96-well plate (200 μL total volume) containing the appropriate cells (50,000-75,000 cells/well), 20 μL of the test article or the positive control ligand was added to the wells. For the antagonist assay, the test article was incubated with the cells, at 37° C. with 5% CO2, for 30 minutes prior to the addition of the positive control ligand to the wells. The media added to the wells was designed for the detection of NF-κB induced SEAP expression. After a 16-24 hr incubation the optical density (OD) was read at 650 nm on a Molecular Devices SpectraMax 340PC absorbance detector. Fold induction (ratio of average induced value to average non-induced value) was determined for each TLR, NOD1, NOD2, Dectin-1a, Dectin-1b.

human MDA-5 = biological target: T2, human MDA-5 (Homo sapiens, UniProt Q9BYX4); experiment: Human RLR antagonist screening, IRF3 luciferase reporter in HEK293 cells
T2 construct: expressed in transfected cells; host or cells: HEK293
T2 sequence (Q9BYX4 1-1025): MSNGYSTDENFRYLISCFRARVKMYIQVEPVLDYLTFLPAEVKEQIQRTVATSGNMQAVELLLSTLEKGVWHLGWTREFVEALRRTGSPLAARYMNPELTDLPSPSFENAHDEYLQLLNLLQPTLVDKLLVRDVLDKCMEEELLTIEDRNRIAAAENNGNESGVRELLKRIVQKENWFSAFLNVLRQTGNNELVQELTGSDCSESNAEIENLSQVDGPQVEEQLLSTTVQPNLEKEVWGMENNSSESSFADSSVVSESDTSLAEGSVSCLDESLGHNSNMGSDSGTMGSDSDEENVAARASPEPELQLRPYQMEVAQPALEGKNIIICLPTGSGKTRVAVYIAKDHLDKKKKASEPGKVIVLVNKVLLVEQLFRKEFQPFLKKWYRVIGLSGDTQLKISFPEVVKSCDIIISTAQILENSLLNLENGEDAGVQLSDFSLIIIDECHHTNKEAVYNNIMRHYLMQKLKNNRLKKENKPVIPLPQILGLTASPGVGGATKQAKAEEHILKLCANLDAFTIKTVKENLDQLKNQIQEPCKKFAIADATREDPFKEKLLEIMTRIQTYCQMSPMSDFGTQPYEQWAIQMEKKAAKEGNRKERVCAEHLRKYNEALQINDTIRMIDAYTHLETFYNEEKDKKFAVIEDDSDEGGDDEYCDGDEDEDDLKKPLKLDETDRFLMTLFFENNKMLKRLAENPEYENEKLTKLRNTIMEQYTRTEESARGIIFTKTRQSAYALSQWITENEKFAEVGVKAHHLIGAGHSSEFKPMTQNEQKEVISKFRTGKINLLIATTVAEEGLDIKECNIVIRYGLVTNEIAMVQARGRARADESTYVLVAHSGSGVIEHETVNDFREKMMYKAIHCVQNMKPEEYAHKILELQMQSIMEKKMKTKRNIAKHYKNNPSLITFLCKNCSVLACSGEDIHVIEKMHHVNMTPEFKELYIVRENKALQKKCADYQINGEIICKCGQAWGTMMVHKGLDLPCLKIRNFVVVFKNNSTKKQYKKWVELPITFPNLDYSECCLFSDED
Protocol: (§1) RIG-I and MDA-5 stimulation were tested by assessing IRF3 activation in HEK293 cells expressing human RIG-I or MDA-5 genes. The activity of the test articles was tested on human RIG-I and MDA-5 expressing cells as a potential agonist or antagonist. The test articles were evaluated at one concentration and compared to control ligands. This step was performed in triplicate. The results are provided as Relative Luminescence Units (RLUs). RIG-I/MDA-5: Poly(I:C)/LyoVec at 1 μg/mL Antagonist: 500 ng/mL. 5′ppp-dsRNA/LyoVec at 1 μg/mL Antagonist: 500 ng/mL. hIFNα at 1000 IU/mL. Antagonist: 100 IU/mL. In a 96-well plate (200 μL total volume) containing the appropriate cells (25,000-50,000 cells/well), 20 μL of the test article or of the positive control ligand was added to the wells. For the antagonist assay, the test article was incubated with the cells, at 37° C. with 5% CO2, for 30 minutes prior to the addition of the positive control ligand to the wells. After 20 hour incubation, activation of the IRF pathway was monitored using a luciferase detection assay. Luciferase activity was assayed in triplicate from the supernatant of the induced cells, and the relative luminescence units (RLUs) are detected by a Promega GloMax Luminometer. Fold induction (ratio of average induced value to average non-induced value).

human RIG-I = biological target: T3, human RIG-I (Homo sapiens, UniProt O95786); experiment: as above
T3 construct: expressed in transfected cells; host or cells: HEK293
Protocol: as §1

T3 sequence (O95786 whole entry): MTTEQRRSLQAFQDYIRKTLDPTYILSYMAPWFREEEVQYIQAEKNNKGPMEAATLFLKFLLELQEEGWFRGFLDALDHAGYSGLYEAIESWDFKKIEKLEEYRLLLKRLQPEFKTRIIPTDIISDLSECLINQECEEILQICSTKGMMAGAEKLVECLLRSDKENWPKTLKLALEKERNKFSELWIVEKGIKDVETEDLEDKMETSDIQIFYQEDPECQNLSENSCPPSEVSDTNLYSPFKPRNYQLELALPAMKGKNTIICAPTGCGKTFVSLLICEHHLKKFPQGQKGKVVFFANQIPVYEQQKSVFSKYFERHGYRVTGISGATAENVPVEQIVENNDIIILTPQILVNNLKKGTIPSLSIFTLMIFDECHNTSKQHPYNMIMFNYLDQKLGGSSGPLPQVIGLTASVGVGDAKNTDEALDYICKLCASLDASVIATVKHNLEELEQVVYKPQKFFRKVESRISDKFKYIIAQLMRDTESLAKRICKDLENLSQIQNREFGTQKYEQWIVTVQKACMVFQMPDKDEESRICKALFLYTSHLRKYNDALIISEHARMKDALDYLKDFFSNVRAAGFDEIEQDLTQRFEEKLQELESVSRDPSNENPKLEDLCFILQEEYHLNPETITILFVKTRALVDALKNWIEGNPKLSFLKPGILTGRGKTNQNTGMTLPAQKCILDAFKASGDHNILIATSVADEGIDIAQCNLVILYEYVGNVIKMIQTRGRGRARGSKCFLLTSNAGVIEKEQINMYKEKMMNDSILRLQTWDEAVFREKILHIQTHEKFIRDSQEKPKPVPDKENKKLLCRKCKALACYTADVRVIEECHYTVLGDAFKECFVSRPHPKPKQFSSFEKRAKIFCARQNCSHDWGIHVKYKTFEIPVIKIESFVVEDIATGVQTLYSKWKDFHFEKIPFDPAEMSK

## CN(C)CCC=C1c2ccccc2CCc2ccccc21 [Amitriptyline]
Human Dectin-1a; +Curdlan 100 μg/mL, No Sample 5, Control− 1
  Fold Induction: slight inhibitory effect
Human Dectin-1a; +Curdlan 100 μg/mL, No Sample 5, Control− 1, listed as Ami
  Fold Induction: 4
Human Dectin-1a; +WGP Soluble 5 ng/mL, No Sample 8, Control− 1
  Fold Induction: 8
Human Dectin-1a; +Zymosan Depleted 3 μg/mL, No Sample 6, Control− 1
  Fold Induction: slight inhibitory effect
Human Dectin-1a; +Zymosan Depleted 3 μg/mL, No Sample 6, Control− 1, listed as Ami
  Fold Induction: 4
Human MDA-5; 5′ppp-dsRNA/LyoVec 500 ng/mL, No Sample 1, Control− 1
  Fold induction (ratio of average induced value to average non-induced value): 1
Human MDA-5; Poly(I:C)/LyoVec 500 ng/mL, No Sample 9, Control− 1
  Fold induction (ratio of average induced value to average non-induced value): 10
Human MDA-5; hIFNα 100 IU/mL, No Sample 255, Control− 1, listed as Ami
  Fold induction (ratio of average induced value to average non-induced value): 192
Human RIG-I; 5′ppp-dsRNA/LyoVec 500 ng/mL, No Sample 6, Control− 1
  Fold induction (ratio of average induced value to average non-induced value): 6
Human RIG-I; Poly(I:C)/LyoVec 500 ng/mL, No Sample 16, Control− 1
  Fold induction (ratio of average induced value to average non-induced value): 16
